Patent publication US8859535B2, “Hydroxy substituted isoquinolinone derivatives” (Novartis AG, priority 2011, dated 2014)

Legend:
[1] = biological target: T1, human MDM4 protein (amino acids 2-185) (Homo sapiens, UniProt O15151); assay: p53-MDM4 TR-FRET assay (p53-MDM4 Assay 1); assay type: binding; details: 2.5 nM MDM4-biotinylated, 10 nM Cy5-p53 peptide; read-out: IC50 (μM) of p53-Hdm4 inhibition (TR-FRET) Assay 1
T1 construct: human MDM4 protein (amino acids 2-185); made in house
T1 sequence (O15151 2-185): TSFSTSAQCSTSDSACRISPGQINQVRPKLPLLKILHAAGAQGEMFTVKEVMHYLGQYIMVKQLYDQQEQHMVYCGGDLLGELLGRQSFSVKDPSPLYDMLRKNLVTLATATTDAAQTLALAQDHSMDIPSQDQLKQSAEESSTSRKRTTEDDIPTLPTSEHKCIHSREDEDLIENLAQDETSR
In short: (§1)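 C-terminally biotinylated MDM2 (aa 2-188, 1.25 nM) or MDM4 (aa 2-185, 2.5 nM) with Eu-streptavidin (0.625 nM), 15 min preincubation, then 10 nM Cy5-p53 peptide (aa18-26), 15 min room temperature; TR-FRET 665/620 nm ratio, IC50 by curve fit. Modified MDM2 Assay 2 uses 0.1 nM MDM2 and 0.1 nM Eu-streptavidin.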

[2] = biological target: T2, human MDM2 protein (amino acids 2-188) (Homo sapiens, UniProt Q00987); assay: p53-MDM2 TR-FRET assay (p53-MDM2 Assay 1); assay type: binding; details: 1.25 nM MDM2-biotinylated, 10 nM Cy5-p53 peptide; read-out: IC50 (μM) of p53-Hdm2 inhibition (TR-FRET) Assay 1
T2 construct: human MDM2 protein (amino acids 2-188); made in house
T2 sequence (Q00987 2-188): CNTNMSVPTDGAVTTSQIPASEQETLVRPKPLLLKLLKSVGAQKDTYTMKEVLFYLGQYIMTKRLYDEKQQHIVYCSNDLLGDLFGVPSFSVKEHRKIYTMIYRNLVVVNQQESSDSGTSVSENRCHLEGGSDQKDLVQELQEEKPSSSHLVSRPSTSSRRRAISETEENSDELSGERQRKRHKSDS
In short: as §1

SMILES | IC50 [1] | IC50 [2]
COc1cccc(C(O)c2ccc(N3C(=O)Cc4cc(OC)c(OC(C)C)cc4[C@@H]3c3ccc(Cl)cc3)cc2)c1 (stereo partly drawn) [Example 2, (S)-1-(4-Chloro-phenyl)-2-{4-[hydroxy-(3-methoxy-phenyl)-methyl]-phenyl}-7-isopropoxy-6-methoxy-1,4-dihydro-2H-isoquinolin-3-one] | 87 µM | 0.0868 µM
COc1cc2c(cc1OC(C)C)[C@H](c1ccc(Cl)cc1)N(c1ccc(C(C)(O)C3CN(C4CCCCC4)C3)cc1)C(=O)C2 (stereo partly drawn) [Example 99, (S)-1-(4-Chloro-phenyl)-2-{4-[1-(1-cyclohexyl-azetidin-3-yl)-1-hydroxy-ethyl]-phenyl}-7-isopropoxy-6-methoxy-1,4-dihydro-2H-isoquinolin-3-one] | 24.6 µM | 0.0279 µM
CC(C)Oc1cc2c(cc1OCC1COC1)CC(=O)N(c1ccc(C(C)(O)C3CCOCC3)cc1)[C@H]2c1ccc(Cl)cc1 (stereo partly drawn) [Example 147, (S)-1-(4-Chloro-phenyl)-2-{4-[1-hydroxy-1-(tetrahydro-pyran-4-yl)-ethyl]-phenyl}-7-isopropoxy-6-(oxetan-3-ylmethoxy)-1,4-dihydro-2H-isoquinolin-3-one] | 3.05 µM | 0.0086 µM
COc1cc2c(cc1OC(C)C)[C@H](c1ccc(Cl)cc1)N(c1ccc(C(C)(O)C3CC4CCC(C3)N4C(C)=O)cc1)C(=O)C2 (stereo partly drawn) [Example 104, (S)-2-{4-[1-(8-Acetyl-8-aza-bicyclo[3.2.1]oct-3-yl)-1-hydroxy-ethyl]-phenyl}-1-(4-chloro-phenyl)-7-isopropoxy-6-methoxy-1,4-dihydro-2H-isoquinolin-3-one] | 14.2 µM | 0.0132 µM
CCC(C)(O)c1ccc(N2C(=O)Cc3cc(OC)c(OC(C)C)cc3[C@@H]2c2ccc(Cl)cc2)cc1 (stereo partly drawn) [Example 3, (S)-1-(4-Chloro-phenyl)-2-[4-(1-hydroxy-1-methyl-propyl)-phenyl]-7-isopropoxy-6-methoxy-1,4-dihydro-2H-isoquinolin-3-one] | 18.9 µM | 0.0267 µM
COc1cc2c(cc1OC(C)C)[C@H](c1ccc(Cl)cc1)N(c1ccc(C(C)(O)c3cccnc3)cc1)C(=O)C2 (stereo partly drawn) [Example 16, (S)-1-(4-Chloro-phenyl)-2-[4-(1-hydroxy-1-pyridin-3-yl-ethyl)-phenyl]-7-isopropoxy-6-methoxy-1,4-dihydro-2H-isoquinolin-3-one] | 8.42 µM | 0.0058 µM
COc1cc2c(cc1OC(C)C)[C@H](c1ccc(Cl)cc1)N(c1ccc([C@@](C)(O)c3ccc(NC(C)=O)cc3)cc1)C(=O)C2 [Example 26, N-[4-((S)-1-{4-[(S)-1-(4-Chloro-phenyl)-7-isopropoxy-6-methoxy-3-oxo-3,4-dihydro-1H-isoquinolin-2-yl]-phenyl}-1-hydroxy-ethyl)-phenyl]-acetamide] | 8.25 µM | 0.0043 µM
COc1cc(OC)cc(C(C)(O)c2ccc(N3C(=O)Cc4cc(OC)c(OC(C)C)cc4[C@@H]3c3ccc(Cl)cc3)cc2)c1 (stereo partly drawn) [Example 22, (S)-1-(4-Chloro-phenyl)-2-{4-[1-(3,5-dimethoxy-phenyl)-1-hydroxy-ethyl]-phenyl}-7-isopropoxy-6-methoxy-1,4-dihydro-2H-isoquinolin-3-one] | 21.7 µM | 0.0225 µM
COc1cc2c(cc1OC(C)C)[C@H](c1ccc(Cl)cc1)N(c1ccc(C(C)(C)O)cc1)C(=O)C2 [Example 11, (S)-1-(4-Chloro-phenyl)-2-[4-(1-hydroxy-1-methyl-ethyl)-phenyl]-7-isopropoxy-6-methoxy-1,4-dihydro-2H-isoquinolin-3-one] | 51.6 µM | 0.0555 µM
COc1cc2c(cc1OC(C)C)[C@H](c1ccc(Cl)cc1)N(c1ccc(C3(O)CCC3)cc1)C(=O)C2 [Example 51, (S)-1-(4-Chloro-phenyl)-2-[4-(1-hydroxy-cyclobutyl)-phenyl]-7-isopropoxy-6-methoxy-1,4-dihydro-2H-isoquinolin-3-one] | 45.3 µM | 0.0731 µM
COc1cc2c(cc1OC(C)C)[C@H](c1ccc(Cl)cc1)N(c1ccc([C@](C)(O)C3CCOCC3)cc1)C(=O)C2 (single isomer, unassigned) [Example 33] | 67.8 µM | 0.216 µM
COc1cc2c(cc1OC(C)C)[C@H](c1ccc(Cl)cc1)N(c1ccc([C@](C)(O)C3CCOCC3)c(F)c1)C(=O)C2 (single isomer, unassigned) [Example 38] | 84 µM | 0.383 µM
COc1cc2c(cc1OC(C)C)[C@H](c1ccc(Cl)cc1)N(c1ccc([C@](C)(O)C3CCS(=O)(=O)CC3)cc1)C(=O)C2 [Example 167, (S)-1-(4-Chloro-phenyl)-2-{4-[(R)-1-(1,1-dioxo-hexahydro-1-thiopyran-4-yl)-1-hydroxy-ethyl]-phenyl}-7-isopropoxy-6-methoxy-1,4-dihydro-2H-isoquinolin-3-one] | 51.1 µM | 0.125 µM
COc1cc2c(cc1OC(C)C)[C@H](c1ccc(Cl)cc1)N(c1ccc(C(C)(O)C3CCOCC3)cc1OC)C(=O)C2 (stereo partly drawn) [Example 36, (S)-1-(4-Chloro-phenyl)-2-{4-[1-hydroxy-1-(tetrahydro-pyran-4-yl)-ethyl]-2-methoxy-phenyl}-7-isopropoxy-6-methoxy-1,4-dihydro-2H-isoquinolin-3-one] | 6.03 µM | 0.0051 µM
COc1cc2c(cc1OC(C)C)[C@H](c1ccc(Cl)cc1)N(c1ccc([C@@](C)(O)C3CC[S+]([O-])CC3)cc1)C(=O)C2 (stereo partly drawn) [Example 171, (S)-1-(4-Chloro-phenyl)-2-{4-[(S)-1-hydroxy-1-(1-oxo-hexahydro-1-thiopyran-4-yl)-ethyl]-phenyl}-7-isopropoxy-6-methoxy-1,4-dihydro-2H-isoquinolin-3-one] | 4.4 µM | 0.0031 µM
COc1cc2c(cc1OC(C)C)[C@H](c1ccc(Cl)cc1)N(c1ccc(C(C)(O)C3CN(C(C)C)C3)cc1)C(=O)C2 (stereo partly drawn) [Example 72, (S)-1-(4-Chloro-phenyl)-2-{4-[1-hydroxy-1-(1-isopropyl-azetidin-3-yl)-ethyl]-phenyl}-7-isopropoxy-6-methoxy-1,4-dihydro-2H-isoquinolin-3-one] | 18.4 µM | 0.0234 µM
COc1cc2c(cc1OC(C)C)[C@H](c1ccc(Cl)cc1)N(c1ccc(C(C)(O)C3CCOCC3)cc1)C(=O)C2 (mixture of isomers) [Example 30, (S)-1-(4-Chloro-phenyl)-2-{4-[1-hydroxy-1-(tetrahydro-pyran-4-yl)-ethyl]-phenyl}-7-isopropoxy-6-methoxy-1,4-dihydro-2H-isoquinolin-3-one] | 4.06 µM | 0.0037 µM
CCN1CCC(N2CC(C(C)(O)c3ccc(N4C(=O)Cc5cc(OC)c(OC(C)C)cc5[C@@H]4c4ccc(Cl)cc4)cc3)C2)CC1 (stereo partly drawn) [Example 100, (S)-1-(4-Chloro-phenyl)-2-(4-{1-[1-(1-ethyl-piperidin-4-yl)-azetidin-3-yl]-1-hydroxy-ethyl}-phenyl)-7-isopropoxy-6-methoxy-1,4-dihydro-2H-isoquinolin-3-one] | 9.66 µM | 0.0082 µM
COc1cc2c(cc1OC(C)C)[C@H](c1ccc(Cl)cc1)N(c1ccc([C@](C)(O)C34CCC(CC3)O4)cc1)C(=O)C2 (single isomer, unassigned) [Example 137] | 25.7 µM | 0.145 µM
CCN1CCC(C(C)(O)c2ccc(N3C(=O)Cc4cc(OC)c(OC(C)C)cc4[C@@H]3c3ccc(Cl)cc3)cc2)CC1 (stereo partly drawn) [Example 85, (S)-1-(4-Chloro-phenyl)-2-{4-[1-(1-ethyl-piperidin-4-yl)-1-hydroxy-ethyl]-phenyl}-7-isopropoxy-6-methoxy-1,4-dihydro-2H-isoquinolin-3-one] | 4.94 µM | 0.0048 µM
COc1cc2c(cc1OC(C)C)[C@H](c1ccc(Cl)cc1)N(c1ccc(C(C)(O)C3CN(C4CCN(C)CC4)C3)cc1)C(=O)C2 (stereo partly drawn) [Example 101, (S)-1-(4-Chloro-phenyl)-2-(4-{1-hydroxy-1-[1-(1-methyl-piperidin-4-yl)-azetidin-3-yl]-ethyl}-phenyl)-7-isopropoxy-6-methoxy-1,4-dihydro-2H-isoquinolin-3-one] | 9.21 µM | 0.0085 µM
COc1cc2c(cc1OC(C)C)[C@H](c1ccc(Cl)cc1)N(c1ccc(C(C)(O)c3ccncc3)cc1)C(=O)C2 (stereo partly drawn) [Example 17, (S)-1-(4-Chloro-phenyl)-2-[4-(1-hydroxy-1-pyridin-4-yl-ethyl)-phenyl]-7-isopropoxy-6-methoxy-1,4-dihydro-2H-isoquinolin-3-one] | 7.73 µM | 0.0068 µM
COc1cc2c(cc1OC(C)C)[C@H](c1ccc(Cl)cc1)N(c1ccc(C(C)(O)C3CN(C(C)=O)C3)cc1)C(=O)C2 (stereo partly drawn) [Example 66, (S)-2-{4-[1-(1-Acetyl-azetidin-3-yl)-1-hydroxy-ethyl]-phenyl}-1-(4-chloro-phenyl)-7-isopropoxy-6-methoxy-1,4-dihydro-2H-isoquinolin-3-one] | 13.5 µM | 0.0146 µM
COc1cc2c(cc1OC(C)C)[C@H](c1ccc(Cl)cc1)N(c1ccc(C(C)(O)c3ccc(F)c(F)c3)cc1)C(=O)C2 (stereo partly drawn) [Example 19, (S)-1-(4-Chloro-phenyl)-2-{4-[1-(3,4-difluoro-phenyl)-1-hydroxy-ethyl]-phenyl}-7-isopropoxy-6-methoxy-1,4-dihydro-2H-isoquinolin-3-one] | 87.2 µM | 0.0446 µM
